Results published in patent US8821898B2, “Active compound combinations having insecticidal and acaricidal properties” (Bayer CropScience AG, priority 2003, dated 2014).

Experiments:
Assay type in all cases: in vivo
[1] = test system: Phaedon cochleariae larvae; assay: Phaedon cochleariae larvae test (dipped cabbage leaves)
Description: (§1) To produce a suitable preparation of active compound, 1 part by weight of active compound is mixed with the stated amounts of solvent and emulsifier, and the concentrate is diluted with emulsifier-containing water to the desired concentration.
Cabbage leaves (Brassica oleracea) are treated by being dipped into the preparation of active compound of the desired concentration and are populated with larvae of the mustard beetle (Phaedon cochleariae) while the leaves are still moist.
After the desired period of time, the kill in % is determined. 100% means that all beetle larvae have been killed; 0% means that none of the beetle larvae have been killed. The determined kill rates are entered into Colby's formula (see page 41).

Aphis gossypii = Aphis gossypii test (dipped cotton leaves)
Description: as §1
Cotton leaves (Gossypium hirsutum) which are heavily infested by the cotton aphid (Aphis gossypii) are treated by being dipped into the preparation of active compound of the desired concentration.
After the desired period of time; the kill in % is determined. 100% means that all aphids have been killed; 0% means that none of the aphids have been killed. The determined kill rates are entered into Colby's formula (see page 41).

Myzus persicae = Myzus persicae test (dipped cabbage leaves); settings: 4 ppm
Description: as §1
Cabbage leaves (Brassica oleracea) which are heavily infested by the green peach aphid (Myzus persicae) are treated by being dipped into the preparation of active compound of the desired concentration.
After the desired period of time, the kill in % is determined. 100% means that all aphids have been killed; 0% means that none of the aphids have been killed. The determined kill rates are entered into Colby's formula (see on page 41).

Spodoptera frugiperda = Spodoptera frugiperda test (dipped cabbage leaves)
Description: as §1
Cabbage leaves (Brassica oleracea) are treated by being dipped into the preparation of active compound of the desired concentration and are populated with caterpillars of the army worm (Spodoptera frugiperda) while the leaves are still moist.
(§2) After the desired period of time, the kill in % is determined. 100% means that all caterpillars have been killed; 0% means that none of the caterpillars have been killed. The determined kill rates are entered into Colby's formula (see page 41).

[2] = test system: Plutella xylostella, resistant strain; assay: Plutella xylostella test (resistant strain)
Description: as §1
Cabbage leaves (Brassica oleracea) are treated by being dipped into the preparation of active compound of the desired concentration and are populated with caterpillars of the diamondback moth (Plutella xylostella, resistant strain) while the leaves are still moist.
as §2

**Q.** Which results are given for CC(C)N1C(=O)N(c2ccccc2)CS/C1=N\C(C)(C)C [(2-2) buprofezin, buprofezin, reference compound]?
**A.** Kill rate in % after 3d, found ([1]; 100 ppm): 20%; Kill rate in % after 7d, found (Aphis gossypii; 20 ppm): 0%

**Q.** With N#CCNC(=O)c1cnccc1C(F)(F)F [(2-6) flonicamid, flonicamid, reference compound] as the compound, how does the “Kill rate in % after 6d, found” value (Myzus persicae; Table B2) read?
**A.** Its value is 40%.

**Q.** And the “Kill rate in % after 3d, found” value (Spodoptera frugiperda; 100 ppm)?
**A.** The value was 5%.

**Q.** And the “Kill rate in % after 6d, found” value (Aphis gossypii; 20 ppm)?
**A.** The value was 40%.

**Q.** With Cc1cc(Cl)cc(C(=O)NC(C)C)c1NC(=O)c1cc(C(F)(F)F)nn1-c1ncccc1Cl [II-1-9] as the compound, how does the “Kill rate in % after 3d, found” value ([1]; 0.16 ppm) read?
**A.** The value was 5%.

**Q.** What about the “Kill rate in % after 6d, found” value ([1]; 0.16 ppm) of the same compound?
**A.** The value was 0%.

**Q.** What about the “Kill rate in % after 6d, found” value (Myzus persicae; Table B1) of the same compound?
**A.** The value was 30%.

**Q.** What about the “Kill rate in % after 6d, found” value (Myzus persicae; Table B2) of the same compound?
**A.** The value was 0%.

**Q.** And the “Kill rate in % after 3d, found” value (Spodoptera frugiperda; 0.16 ppm)?
**A.** The value was 45%.

**Q.** What about the “Kill rate in % after 7d, found” value (Aphis gossypii; 4 ppm) of the same compound?
**A.** The value was 20%.

**Q.** And the “Kill rate in % after 6d, found” value (Aphis gossypii; 20 ppm)?
**A.** Its value is 55%.

**Q.** What about the “Kill rate in % after 6d, found” value ([2]; 0.0064 ppm) of the same compound?
**A.** Its value is 0%.

**Q.** CCOC(=O)OC1=C(c2cc(C)ccc2C)C(=O)NC12CCC(OC)CC2 (stereo not shown) [I-a-4] was tested. Which “Kill rate in % after 6d, found” value ([1]; 4 ppm) did it give?
**A.** The value was 15%.

**Q.** What about the “Kill rate in % after 6d, found” value (Myzus persicae; Table B1) of the same compound?
**A.** Its value is 80%.

**Q.** What about the “Kill rate in % after 6d, found” value ([2]; 0.16 ppm) of the same compound?
**A.** Its value is 0%.
